For assay [1], the system named is S. aureus CPHL EMRSA 16. Description: MBC assay. It counts as cell-based. The settings on record: Staphylococcus aureus; S. aureus CPHL EMRSA 16 (resistance Met/β-lactams). The method, then:
(§1) Other staphylococcal strains were also tested, as described in Example 5 below. These included certain antibiotic resistant staphylococci, such as the methicillin resistant S. aureus (MRSA) strains EMRSA-15 and EMRSA-16, both available from the Central Public Health Laboratory (CPHL), Colindale, UK. These strains are resistant not only to all beta-lactams but also to a number of other antibiotics in clinical use, making them a serious threat to human health. They are also responsible for the majority (>95%) of hospital-acquired MRSA infections in the UK.
(§2) The staphylococci and enterococci were cultured and maintained on Mueller-Hinton Medium (agar and broth) at pH 7.2; they were incubated aerobically at 37° C. for 24 hours.
(§3) This assay, normally carried out after an MIC assay, determines the minimum concentration of a compound that is lethal to the micro-organism being tested.
(§4) These samples were then individually sub-cultured on non-selective agar medium, under the incubation conditions described above. Following incubation they were examined visually for bacterial growth.

Assay [2] has as its system S. aureus CPHL EMRSA 15. Description: MBC assay. The settings on record: Staphylococcus aureus. It counts as cell-based. As for the experimental part:
as §1, §2, §3, §4

In assay [3] the test system is E faecalis ATCC 29212. Description: MIC assay. Format: cell-based. The conditions noted are these: Enterococcus faecalis, ATCC29212. From the text:
3. Enterococcus faecalis ATCC 29212—this is a Gram-positive bacterium belonging to the genus Enterococcus. Enterococci have similar properties to streptococci, but differ in their ability to grow on bile-salt containing media such as MacConkey's Agar. Their principal habitat is the mammalian gastrointestinal tract. They cause a number of important infections including endocarditis, urinary tract infections and abscesses. In the context of skin, they are frequently isolated from wound infections. Unlike the streptococci, the enterococci have developed widespread resistance to penicillin. More recently, E. faecalis and E. faecium strains have also developed resistance to the glycopeptide antibiotics such as vancomycin. Vancomycin-Resistant Enterococci (VRE), principally vanA strains of E. faecium, now represent a serious healthcare-acquired infection hazard in the USA, Japan and Western Europe. […]
This is a standard international method for quantitatively assessing the antimicrobial activity of a compound in a liquid medium. […]
The wells were inoculated with a liquid suspension of freshly grown micro-organism and incubated under the conditions described above. […] The MIC value was recorded as the lowest concentration of test compound required to inhibit microbial growth, ie, the lowest concentration for which the liquid in the well remained clear. […]

The subject of assay [4] is P. granulosum PRP-044. Briefly: MIC assay. Format: cell-based. The conditions noted are these: P. granulosum PRP-044 (resistance MLS). The method, then:
(§5) The Propionibacterium spp organisms were cultured and maintained on Wilkins-Chalgren Anaerobe Medium (agar and broth) at pH 6.0; cultures were incubated anaerobically at 37° C. for 72 hours.
(§6) This is a standard international method for quantitatively assessing the antimicrobial activity of a compound in a liquid medium. The method used a 96-well microtitre plate, capable of holding about 200 μl of liquid per well. […] The culture media were as described above for the relevant test organisms.
(§7) The wells were inoculated with a liquid suspension of freshly grown micro-organism and incubated under the conditions described above. After incubation, the microtitre plate was examined visually (with the aid of a light box) for cell pellets in and/or opaque wells, which would indicate microbial growth. The MIC value was recorded as the lowest concentration of test compound required to inhibit microbial growth, ie, the lowest concentration for which the liquid in the well remained clear.
(§8) The assays were conducted in duplicate and included both negative (culture medium only) and positive (culture medium, diluting solvent and inoculum) controls.

Assay [5] has as its system P. granulosum PRP-005. Description: MIC assay. It counts as cell-based. The conditions noted are these: P. granulosum PRP-005 (resistance MLSK). The method, then:
as §5, §6, §7, §8

Assay [6] deals with P. granulosum PRP-043. Description: MIC assay. It counts as cell-based. The conditions noted are these: P. granulosum PRP-043 (resistance MLS). As for the experimental part:
as §5, §6, §7, §8

Assay [7] has as its system P. granulosum NCTC 11865. Briefly: MIC assay. It counts as cell-based. The settings on record: P. granulosum NCTC 11865 (resistance None). As for the experimental part: as §5, §6, §7, §8
Assay [8] has as its system P. acnes PRP-004. Briefly: MIC assay. It counts as cell-based, Propionibacterium acnes. The conditions noted are these: Cutibacterium acnes, PRP004; P. acnes PRP-004 (resistance Tet). The method, then:
as §5, §6, §7, §8

Assay [9] deals with P. acnes PRP-101. Description: MIC assay. It counts as cell-based, Propionibacterium acnes. The settings on record: Cutibacterium acnes, PRP101; P. acnes PRP-101 (resistance Tet/MLS). The method, then:
as §5, §6, §7, §8

The test system of assay [10] is P. acnes PRP-102. Description: MIC assay. The conditions noted are these: Cutibacterium acnes, PRP102; P. acnes PRP-102 (resistance Tet/MLS). It counts as cell-based, Propionibacterium acnes. As for the experimental part:
as §5, §6, §7, §8

The subject of assay [11] is P. acnes PRP-023. Briefly: MIC assay. It counts as cell-based, Propionibacterium acnes. The settings on record: Cutibacterium acnes, PRP023; P. acnes PRP-023 (resistance MLSK). As for the experimental part:
as §5, §6, §7, §8

Assay [12] has as its system P. acnes PRP-007. Briefly: MIC assay. Format: cell-based, Propionibacterium acnes. The settings on record: Cutibacterium acnes, PRP007; P. acnes PRP-007 (resistance Clin). The method, then: as §5, §6, §7, §8
The subject of assay [13] is P. acnes PRP-017. Briefly: MIC assay. Format: cell-based, Propionibacterium acnes. The settings on record: Cutibacterium acnes, PRP017; P. acnes PRP-017 (resistance MLS). As for the experimental part:
as §5, §6, §7, §8

Assay [14] has as its system P. acnes PRP-059. Briefly: MIC assay. Format: cell-based, Propionibacterium acnes. The conditions noted are these: Cutibacterium acnes, PRP059; P. acnes PRP-059 (resistance MLS). The method, then: as §5, §6, §7, §8
For assay [15], the system named is P. acnes PRP-008. Briefly: MIC assay. Format: cell-based, Propionibacterium acnes. The settings on record: Cutibacterium acnes, PRP008; P. acnes PRP-008 (resistance Clin). The method, then: as §5, §6, §7, §8
The test system of assay [16] is P. acnes PRP-068. Briefly: MIC assay. It counts as cell-based, Propionibacterium acnes. The conditions noted are these: Cutibacterium acnes, PRP068; P. acnes PRP-068 (resistance Ery). As for the experimental part:
as §5, §6, §7, §8

The test system of assay [17] is P. acnes PRP-003. Description: MIC assay. It counts as cell-based, Propionibacterium acnes. The conditions noted are these: Cutibacterium acnes, PRP003; P. acnes PRP-003 (resistance Tet). The method, then:
as §5, §6, §7, §8

Assay [18] relates to P. acnes PRP-002. Description: MIC assay. Format: cell-based, Propionibacterium acnes. The settings on record: Cutibacterium acnes, PRP002; P. acnes PRP-002 (resistance Tet/MLS). The method, then: as §5, §6, §7, §8
In assay [19] the test system is P. acnes PRP-046. Description: MIC assay. It counts as cell-based, Propionibacterium acnes. The settings on record: Cutibacterium acnes, PRP046; P. acnes PRP-046 (resistance None). The method, then: as §5, §6, §7, §8
In assay [20] the test system is P. acnes PRP-026. Briefly: MIC assay. Format: cell-based, Propionibacterium acnes. The conditions noted are these: Cutibacterium acnes, PRP026; P. acnes PRP-026 (resistance MLS). The method, then: as §5, §6, §7, §8

These results are taken from patent US20080262097A1, “Formulations” (priority 2005, published 2008).

Structures are written as SMILES. Converted amounts (≈) assume the structure as drawn. Where two headings read alike, the source gives them in different places. A value given as a limit tells only on which side of the number the result lay.

A word on the MBC: it is the smallest concentration meeting the test's criterion for killing. Broadly, the MIC is the lowest concentration found to suppress growth. On to `CC(C)(C)c1cc(O)ccc1O` [TBHQ, t-butyl hydroquinone], for which the MBC in assay [1] came out at 3.9 µg/mL (≈ 23.5 µM); in assay [2] (S. aureus CPHL EMRSA 15 (resistance Met/β-lactams), read-out: MBC), 3.9 µg/mL (≈ 23.5 µM). For the same compound, the MIC is 15.6 µg/mL in assay [3]; 15.6 µg/mL (≈ 93.9 µM) in assay [4]; 62.5 µg/mL (≈ 376 µM) in [5]; 15.6 µg/mL (≈ 93.9 µM) in assay [6]; 3.9 µg/mL (≈ 23.5 µM) in [7]; 1.95 µg/mL (≈ 11.7 µM) in assay [8]. Besides, the MIC worked out at 3.9 µg/mL (≈ 23.5 µM) in assay [9]; 7.8 µg/mL (≈ 46.9 µM) in [10]; 3.9 µg/mL (≈ 23.5 µM) in assay [11]; 3.9 µg/mL (≈ 23.5 µM) in assay [12]; 3.9 µg/mL (≈ 23.5 µM) in assay [13]; 3.9 µg/mL (≈ 23.5 µM) in assay [14]. The MIC in assay [15] turned out to be 3.9 µg/mL (≈ 23.5 µM); in [16] it was 3.9 µg/mL (≈ 23.5 µM); in [17], 7.8 µg/mL (≈ 46.9 µM); in assay [18] it was 3.9 µg/mL (≈ 23.5 µM); in [19] it was 1.95 µg/mL (≈ 11.7 µM); in assay [20], 3.9 µg/mL (≈ 23.5 µM).
For `O=C(OOC(=O)c1ccccc1)c1ccccc1` [benzoyl peroxide], the MBC in [1] is 250 µg/mL (≈ 1030 µM); in assay [2] it was 125 to 250 µg/mL (≈ 516 to 1030 µM). Also, the MIC was more than 250 µg/mL in assay [3] (E faecalis ATCC 29212, read-out: MIC); 31.2 µg/mL (≈ 129 µM) in assay [4]; 15.6 µg/mL (≈ 64.4 µM) in [5]; 62.5 µg/mL (≈ 258 µM) in assay [6]; 15.6 µg/mL (≈ 64.4 µM) in assay [7]; 7.8 µg/mL (≈ 32.2 µM) in [8]. Further, the MIC in assay [9] is 15.6 µg/mL (≈ 64.4 µM); in assay [10], 62.5 µg/mL (≈ 258 µM); in assay [11] it was 31.2 µg/mL (≈ 129 µM); in assay [12], 31.2 µg/mL (≈ 129 µM); in assay [13], 31.2 µg/mL (≈ 129 µM); in assay [14], 62.5 µg/mL (≈ 258 µM). Moreover, the MIC in assay [15] is 31.2 µg/mL (≈ 129 µM); in assay [16], 62.5 µg/mL (≈ 258 µM); in assay [17], 31.2 µg/mL (≈ 129 µM); in assay [18], 15.6 µg/mL (≈ 64.4 µM); in assay [19] it was 31.2 µg/mL (≈ 129 µM); in assay [20], 15.6 µg/mL (≈ 64.4 µM).
